The test system of test [1] is creatine transporter mRNA. Description: In situ hybridization of creatine transporter mRNA in rat brain. Format: in vivo. Conditions: 48 hours after icv 0.4 um/kg; arcuate, dorsomedial, ventromedial, third ventricle, paraventricular thalamic, habenular areas; FIG. 6. The source says:
At least 3 rats per group were used for each individual probe. Brains were dissected as described above and were cut vertically to remove the anterior portion at the optic chiasm and the posterior portion at the interpeduncular fossa so that the remaining blocks included the whole hypothalamus with a small additional margin of adjacent tissue. The blocks were immediately frozen on foil on dry ice, then stored at −80 degrees C. Blocks were sectioned in a cryostat (Micron HM500O) at −20 degrees C. and at a thickness of 13 microns. The slides were fixed in 4% paraformaldehyde for 5 minutes and acetylated in 1.3% triethanolamine and 0.5% acetic anhydride, pH 8.0 for 5 minutes. […] After air drying, the slides were ready to use.
For preparation of radiolabeled riboprobes, the DNA fragments containing the creatine transporter insert and a T7 or SP6 phage promoter sequence in each side were produced from cloning vectors (pCRII-TOPO, Invitrogene; PCR-TRAP, GenHunter) either by restriction endonuclease digestion or by PCR amplification. […] The cpm value was determined by counting in a liquid scintillation spectrometer. […]
For dipping and developing in situ slides, Kodak NTB-2 emulsion was diluted (1:1) using ddH2O and warmed to 40 degrees C. in a dark room. […] Slides were observed under dark-field microscopy (Olympus, Tokyo, Japan) and silver grains in regions of interest were assessed. […]

A further test relates to Fos (c-fos protein). Description: Fos immunohistochemistry of hypothalamic sections 4 hours after icv injection. Format: in vivo, rat. Conditions: 4 hours after icv injection, percent of area stained. As for the experimental part: In experiments involving immunohistochemistry, animals were injected icv with beta-GPA or with vehicle. Four hours after injection, animals were anesthetized with halothane and perfused through the left ventricle of the heart, initially with oxygenated Krebs buffer and then with ˜350 ml of 4% paraformaldehyde in 0.1M NaCl, pH 7.4 phosphate buffered saline (PBS). Brains were extracted from the skull, hypothalamic blocks dissected (by coronal cuts anterior and posterior to hypothalamic landmarks) and post-fixed in 4% paraformaldehyde solution at 4 degrees C. overnight. The following day, the blocks were transferred to 30% sucrose and incubated overnight at 4 degrees C. After freezing in Optimum Cutting Temperature (OCT) compound (Sakura, Japan), blocks were sectioned coronally at 40 um on a cryostat and sections individually floated in multi-well dishes filled with PBS. Sections were treated for 30 minutes with 0.4% Triton detergent in potassium PBS to aid in antibody penetration. Primary antibodies were added, the plates shaken gently for 1 hour at room temperature, then incubated at 4 degrees C. for 72 hours. Sections were then brought to room temperature while shaking and the primary antibody solution was removed by washing 3 times with PBS buffer. After removal of the last wash, the secondary antibody solution was added and the plates incubated for 2 hours at room temperature in the dark. Removal of the second antibody was achieved by washing three times with PBS buffer prior to mounting on subbed slides. They were allowed to dry, rewetted with PBS buffer and cover-slipped with Citifluor (Ted Pella, Reading, Calif.).
Fos studies were performed using indirect fluorescence visualization. The method utilized rabbit c-Fos-AB5 (1:2,000; Oncogene Research Products, Cambridge, Mass.) with goat anti-rabbit Cy3 (1:500; Jackson Immuno Research Laboratories, West Grove, Pa.) as the secondary antibody. […] Staining observed in experimental tissue was compared to that observed from experiment-matched negative controls. […] Immunoreactive Fos (Fos IR) was quantified by capturing images at 10× using MagnaFire 2.0 Software. These images were imported into the Metamorph 6.1 Software package and density of staining measured using Hue Saturation Intensity. Regions outlining nuclei were hand drawn with an electric pen and the total areas and stained areas measured to yield percentages of total areas with specific Fos-IR. The values for left and right dorsomedial nuclei in each rat were averaged, and the averages used to calculate means. In the case of the III ventricle, the entire image was used for quantification prior to calculating the percentage of the area with Fos-IR.

Molecules are shown by their SMILES.

Here are results for one compound from US20090305225A1, “Inhibition of Creatine Uptake to Promote Weight Loss” (priority 2005, published 2009).

As for `C=Cc1c(C)c2cc3[nH]c(cc4nc(cc5nc(cc1[nH]2)C(C)=C5CCC(=O)[O-])C(CCC(=O)[O-])=C4C)c(C)c3C=C.[Co+2]` [CoPP, Cobaltic protoporphyrin IX], in test [1], the “CrT mRNA in situ hybridization compared to control” value is “increased”. Further, in the test on Fos (c-fos protein), the “Fos IR in the dorsomedial nucleus” value was 6.86 ± 5.85% and the “Fos IR in the paraventricular nucleus” value was determined as 4.44 ± 2.22%. Also, the “Fos IR in the midsection of the ventral III ventricle” value with Fos (c-fos protein) (p<0.025) is given as 48.3 ± 11.18%.
